Biological target: T1, human GPR84 receptor (Homo sapiens, UniProt Q9NQS5)
T1 construct: frozen aliquots prepared by acCELLerate; host or cells: CHO-K1
Assay: cAMP HTRF assay for identification of cellular GPR84 antagonists
Assay type: cell-based
Conditions: CHO-K1 cells stably expressing human GPR84; Forskolin plus agonist 6-OAU; cAMP HTRF readout; average or median values
Description: cAMP HTRF® Assay for Identification of Cellular GPR84 Antagonists
By using a Homogenous Time-Resolved Fluorescence (HTRF®) based assay (#62AM5PEJ, Cisbio, Condolet, France) the inhibition of the Gi-coupled GPR84 receptor can be detected. CHO-K1 cells stably expressing human GPR84 receptor (purchased from DiscoveRx, now Eurofins) were used and treated with Forskolin (F6886, Sigma, Germany) to stimulate membrane adenylyl cyclases and thereby unspecific cAMP formation. Activation of the Gi-coupled GPR84 by a natural or small molecule agonist (e.g. 6-n-octyl aminouracile, inhouse) results in inhibition of cellular cAMP formation which can be released again by antagonists to this receptor. Detection and quantification of cellular cAMP levels in this HTRF assay is achieved by interaction between a fluorescent cAMP tracer (cAMP-d2) and an Eu-cryptate labelled anti-cAMP antibody. Following excitation at 337 nm this pairing allows for the generation of a fluorescence resonance energy transfer (FRET) between the partners and results in FRET induced emissions at 665 nm and 620 nm, the latter representing background signal by Eu-cryptate labelled anti-cAMP antibody. Maximal signal is obtained in the absence of any cellular cAMP (no competition for the binding of the tracer to the antibody). Given the combination of the Gi coupling properties of GPR84 and the competitive nature of the detection system agonist treatment should result in an increase in the HTRF signal due to lowered cAMP levels. Any signal decrease in the presence of Forskolin, agonist and compound is indicative of antagonist mediated abrogation of GPR84 signalling.
For the assay, frozen aliquots of CHO-K1 cells expressing hGPR84 (prepared by acCELLerate, Hamburg, Germany) were thawed and a cell suspension (1.67E+06 cells/mL) in assay media (Ham's F12 Nutrient Mix, Thermo Fisher Scientific, Waltham, USA; 5% fetal calf serum, Biomol, Hamburg, Germany) containing cAMP-d2 (dilution 1:20, supplied with the kit #62AM5PEJ, Cisbio, Condolet, France) was prepared. After recovery of cells for 20 minutes at 37° C., 3 μL/well cell suspension including cAMP-d2 were added to a pre-dispensed assay plate (Greiner Bio-One, Kremsmuenster, Austria) containing 50 nl/well test compound in 100% DMSO or 100% DMSO as control. This was followed by a 30 minutes incubation step at room temperature. […] The reaction was stopped by addition of 3 μL/well lysis buffer containing cAMP Eu-Cryptate antibody (dilution 1:20) (both supplied with the kit #62AM5PEJ, Cisbio, Condolet, France). To enable complete lysis, plates were incubated for 60 minutes at room temperature before measurement in an HTRF reader, e.g. a PHERAstar (BMG Labtech, Ortenberg, Germany).
From the fluorescence emissions at 665 nm (FRET) and at 620 nm (background signal of Eu-cryptate) the ratio (emission at 665 nm divided by emission at 620 nm×10000) was calculated and the data were normalized (reaction without test compound, only 100% DMSO=0% inhibition; all other assay components except agonist=100% inhibition). For dose response testing on the same microtiter plate, compounds were tested at 11 different concentrations in the range of 20 μM to 0.07 nM (20 μM, 5.7 μM, 1.6 μM, 0.47 μM, 0.13 μM, 38 nM, 11 nM, 3.1 nM, 0.89 nM, 0.25 and 0.07 nM; dilution series prepared before the assay at the level of the 100-fold conc. stock solutions by serial 1:3.5 dilutions in 100% DMSO) in duplicate values for each concentration. IC50 values were calculated by 4-parameter fitting using a commercial software package (Genedata Screener, Basel, Switzerland).
Examples were tested in selected biological assays one or more times. […]

T1 sequence (Q9NQS5 whole entry): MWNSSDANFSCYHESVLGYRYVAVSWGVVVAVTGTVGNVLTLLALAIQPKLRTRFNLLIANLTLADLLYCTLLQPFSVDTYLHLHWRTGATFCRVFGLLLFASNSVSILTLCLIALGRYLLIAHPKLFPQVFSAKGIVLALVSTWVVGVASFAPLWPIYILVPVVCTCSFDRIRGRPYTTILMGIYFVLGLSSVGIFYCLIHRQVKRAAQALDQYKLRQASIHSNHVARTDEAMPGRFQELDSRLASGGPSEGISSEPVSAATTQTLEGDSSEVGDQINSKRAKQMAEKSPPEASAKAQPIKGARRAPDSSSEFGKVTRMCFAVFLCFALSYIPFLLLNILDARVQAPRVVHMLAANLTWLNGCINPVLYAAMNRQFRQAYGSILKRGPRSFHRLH

Row | SMILES | IC50 [nM]
1 | O=C(NCc1nccs1)c1oc2ccc3cn(C[C@H]4COCCO4)nc3c2c1C(F)(F)F [Example 12] | 18
2 | Cc1cc2oc(C(=O)NC[C@@H]3CCCO3)c(C(F)(F)F)c2c2nn(Cc3ccccn3)cc12 [Example 29] | 16
3 | Cc1ccc(CNC(=O)c2oc3ccc4cn(C[C@H]5COCCO5)nc4c3c2C(F)(F)F)nc1 [Example 18, 2-{[(2S)-1,4-dioxan-2-yl]methyl}-N-[(5-methylpyridin-2-yl)methyl]-8-(trifluoromethyl)-2H-furo[2,3-g]indazole-7-carboxamide] | 7
4 | O=C(NCc1ncccn1)c1oc2ccc3cn(C[C@H]4COCCO4)nc3c2c1C(F)(F)F [Example 14] | 48
5 | O=C(NCCn1ccnc1)c1oc2ccc3cn(C[C@H]4COCCO4)nc3c2c1C(F)(F)F [Example 25] | 13000
6 | O=C(NCc1ccncn1)c1oc2ccc3cn(C[C@H]4COCCO4)nc3c2c1C(F)(F)F [Example 16] | 120
7 | O=C(NCc1cccnn1)c1oc2ccc3cn(C[C@H]4COCCO4)nc3c2c1C(F)(F)F [Example 17] | 460
8 | Cc1cc2oc(C(=O)NC[C@@H]3CCCO3)c(C(F)(F)F)c2c2nn(Cc3ccncc3)cc12 [Example 31] | 13
9 | COc1cccc(CNC(=O)c2oc3ccc4cn(C[C@H]5COCCO5)nc4c3c2C(F)(F)F)n1 [Example 24] | 400
10 | Cc1cc2oc(C(=O)NCc3ncco3)c(C(F)(F)F)c2c2nn(Cc3ccccn3)cc12 [Example 33] | 100
11 | O=C(NC[C@@H]1CCCO1)c1cc2c(ccc3cn(Cc4ccccn4)nc32)o1 [Example 42, 2-(pyridin-2-ylmethyl)-N-[(2S)-tetrahydrofuran-2-ylmethyl]-2H-furo[2,3-g]indazole-7-carboxamide] | 880
12 | O=C(NC[C@@H]1CCCO1)c1cc2c(cc(Br)c3cn(Cc4ccccn4)nc32)o1 [Example 43, 4-bromo-2-(pyridin-2-ylmethyl)-N-[(2S)-tetrahydrofuran-2-ylmethyl]-2H-furo[2,3-g]indazole-7-carboxamide] | 4930

Continued by falling IC50, values first:

Row | IC50 [nM] | SMILES
13 | 630 | O=C(NCCc1ccccn1)c1oc2ccc3cn(C[C@H]4COCCO4)nc3c2c1C(F)(F)F [Example 27, 2-{[(2S)-1,4-dioxan-2-yl]methyl}-N-[2-(pyridin-2-yl)ethyl]-8-(trifluoromethyl)-2H-furo[2,3-g]indazole-7-carboxamide]
14 | 350 | Cc1ccc(CNC(=O)c2oc3ccc4cn(C[C@H]5COCCO5)nc4c3c2C(F)(F)F)nn1 [Example 21]
15 | 54 | CCc1cc2oc(C(=O)NC[C@@H]3COCCO3)c(C)c2c2nn(C[C@H]3COCCO3)cc12 [Example 44, N-{[(2R)-1,4-dioxan-2-yl]methyl}-2-{[(2S)-1,4-dioxan-2-yl]methyl}-4-ethyl-8-methyl-2H-furo[2,3-g]indazole-7-carboxamide]
16 | 53 | Cc1ccnc(CNC(=O)c2oc3ccc4cn(C[C@H]5COCCO5)nc4c3c2C(F)(F)F)c1 [Example 19, 2-{[(2S)-1,4-dioxan-2-yl]methyl}-N-[(4-methylpyridin-2-yl)methyl]-8-(trifluoromethyl)-2H-furo[2,3-g]indazole-7-carboxamide]
17 | 49 | O=C(NCc1cnccn1)c1oc2ccc3cn(C[C@H]4COCCO4)nc3c2c1C(F)(F)F [Example 15]
18 | 32 | Cc1cc2oc(C(=O)NC[C@@H]3COCCO3)c(C(F)(F)F)c2c2nn(C[C@H]3COCCO3)cc12 [Example 39, N-{[(2R)-1,4-dioxan-2-yl]methyl}-2-{[(2S)-1,4-dioxan-2-yl]methyl}-4-methyl-8-(trifluoromethyl)-2H-furo[2,3-g]indazole-7-carboxamide]
19 | 26 | Cc1cc2oc(C(=O)NC[C@@H]3COCCO3)c(C(F)(F)F)c2c2nn(Cc3ccccn3)cc12 [Example 30]
20 | 21 | Cc1cc2oc(C(=O)NC[C@@H]3CCCO3)c(C(F)(F)F)c2c2nn(C[C@H]3COCCO3)cc12 [Example 38]
21 | 16 | Cc1c(C(=O)NC[C@@H]2CCCO2)oc2ccc3cn(Cc4ccccn4)nc3c12 [Example 40, 8-methyl-2-(pyridin-2-ylmethyl)-N-[(2S)-tetrahydrofuran-2-ylmethyl]-2H-furo[2,3-g]indazole-7-carboxamide]
22 | 11 | O=C(NCC1CC(F)(F)CO1)c1oc2ccc3cn(C[C@H]4COCCO4)nc3c2c1C(F)(F)F (mixture of isomers) [Example 6]
23 | 9 | Cc1ccc(Cn2cc3ccc4oc(C(=O)NC[C@@H]5CCCO5)c(C(F)(F)F)c4c3n2)cn1 [Example 4]
24 | 9 | CC1(C)COC(CNC(=O)c2oc3ccc4cn(C[C@H]5COCCO5)nc4c3c2C(F)(F)F)C1 (mixture of isomers) [Example 5]
